From US9044454B2, “Regulation of microvasculature occlusion” (NORTHWESTERN UNIVERSITY, priority 2010, dated 2015)

How the values were obtained:
[1] = system: U87 cancer cells (glioma model) tumor in mice; experiment: Inhibition of recanalization in U87 tumors embolized with microspheres; assay type: in vivo
Protocol: Mice cerebral vasculatures were embolized by intravascular infusion with either (15 micron microspheres+2 mg/ml ML-7 solution) or (15 micron microspheres+vehicle) followed by daily intra-peritoneal injection of ML-7. 14 days later brain tissues were collected and vessels were labeled with fluorescein lectin. The proportion of recanalized occlusions was assessed from 50 randomly selected microsphere in each group.
U87 cancer cells, which model glioma, were implanted in mice to create a tumor. Tumors were embolized by intravascular infusion with either (15 micron microspheres+2 mg/ml ML-7 solution) or (15 micron microspheres+vehicle). 7 days later brain tissues were collected and vessels were labeled with anti CD 31 antibodies. Cell death marker caspase 3 was labeled with anti caspase 3 antibody. Without ML-7 to inhibit extravasation of emboli, individual emboli cause a moderate amount of caspase upregulation and tumor blood vessels are recanalized re-establishing blood flow to the tumor. […] The proportion of recanalized occlusions was assessed for each group.

[2] = system: mice embolized with fibrin clots or microspheres (cerebral microvasculature); experiment: Measurement of embolus extravasation in MMP 2/9 inhibitor injected embolized mice; assay type: in vivo, mouse
Text: To induce cerebral embolization fluorescently conjugated fibrin clots, cholesterol emboli (8-20 μm in diameter) or polystyrene microspheres (10 or 15 μm in diameter) were infused through the mouse internal carotid artery. Emboli were imaged in fixed tissues by confocal microscopy after vessel labeling by I.V. injection of FITC-lycopersicom esculentum, thioflavin-S or immunolabeled with anti-PECAM-1, collagen IV or ZO-1 antibodies. Emboli were also imaged overtime in vivo by transcranial two-photon microscopy (TPM) in mice expressing GFP in endothelial cells (Tie2-GFP) or wild type mice injected with thioflavin-S I.V. Blood flow velocity was recorded by line scan TPM imaging to verify microvascular occlusion and reestablishment of flow. […] Quantification of extravasation efficiency was performed from confocal images in fixed brain slices and in a subset of experiments from in vivo TPM time-lapse images. Matrix metalloprotease 2/9 (MMP2/9) activity was measured in areas adjacent to emboli using fluorescent in situ zymography methods. […] Perivascular hypoxia was detected by administration and immunohistochemical detection of hypoxyprobe. Dendritic spine density was quantified in confocal image stacks of fixed brain slices from mice expressing YFP in a subset of pyramidal neurons. […]

[3] = 15 micron microspheres + 2 mg/ml ML-7 solution vs vehicle, FIG. 3

Row | SMILES | cell death marker Caspase-3 within the cancer ([1]; 15 micron microspheres + 2 mg/ml ML-7 solution vs microspheres + vehicle, intravascular infusion, 7 days) | extravasated emboli [1, 3] | proportion of recanalized occlusions (occluded vessels re-canalized) [1, 3] | extravasation of clot fragments ([2]; fibrin clot-embolized mice, SB-3CT 20 mg/kg/day i.p. vs saline, 4 days) | microsphere extravasation ([2]; microsphere-embolized mice, SB-3CT i.p. daily 2, 10, 20 mg/kg/day or acutely 40 mg/kg vs saline, 14 days post-embolization)
1 | O=S(=O)(c1cccc2c(I)cccc12)N1CCCNCC1 [ML-7] | broad upregulation | less extravasated emboli | fewer of occluded vessels had been re-canalized | – | –
2 | O=S(=O)(CC1CS1)c1ccc(Oc2ccccc2)cc1 (centres unmarked) [SB-3CT] | – | – | – | marked reduction | substantial reduction
